{"source": "patent US20180177734A1", "about": "“PHARMACEUTICAL FORMULATIONS COMPRISING TENOFOVIR AND EMTRICITABINE” (priority 2015, published 2018)", "conditions": "40° C./75% RH open, 60° C. closed", "note": "Like-named read-outs stand apart in the source and are kept apart here."}
{"smiles": "CC(C)OC(=O)[C@H](C)N[P@](=O)(CO[C@H](C)Cn1cnc2c(N)ncnc21)Oc1ccccc1", "note": "[tenofovir alafenamide hemifumarate]", "values": [{"measurement": "rate of degradation of tenofovir alafenamide hemifumarate", "setting": "in the presence of both emtricitabine and rilpivirine HCl", "result": "further increased"}, {"measurement": "rate of degradation of tenofovir alafenamide hemifumarate", "setting": "in the presence of emtricitabine", "result": "increased"}]}
